Test results reported in PMC10404681, “Intrinsic catalytic properties of histone H3 lysine-9 methyltransferases preserve monomethylation levels under low S-adenosylmethionine” (The Journal of Biological Chemistry, 2023).

How the values were obtained:
EHMT1 catalytic domain = target: T1, EHMT1 catalytic domain (Homo sapiens, UniProt Q9H9B1); test: Radiometric EZ-tip methyltransferase assay, steady-state kinetics, EHMT1; type: biochemical, H. sapiens; conditions: SAM varied 0.1–100 μM, EHMT1 25 nM, pH 7.9, 30 °C, n = 3, SD
T1 construct: EHMT1 = 982 to 1266; host or cells: Rosetta E. coli
T1 sequence (Q9H9B1 982-1266): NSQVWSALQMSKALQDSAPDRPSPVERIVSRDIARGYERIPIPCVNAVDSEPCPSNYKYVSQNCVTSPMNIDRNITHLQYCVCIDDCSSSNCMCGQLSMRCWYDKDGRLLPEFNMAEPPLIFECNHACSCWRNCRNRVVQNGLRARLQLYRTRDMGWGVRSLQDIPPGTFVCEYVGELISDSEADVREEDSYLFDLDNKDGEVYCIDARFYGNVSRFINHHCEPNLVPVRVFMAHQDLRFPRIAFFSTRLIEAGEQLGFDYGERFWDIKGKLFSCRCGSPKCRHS
Description: (§1) The H. sapiens EHMT1 catalytic subunit (Addgene plasmid #51314) and H. sapiens SUV39H2 catalytic subunit (Addgene plasmid #25115) E. coli expression plasmids used in this study were acquired from Addgene, made possible through a gift by Cheryl Arrowsmith. The H. sapiens EHMT2 catalytic subunit E. coli expression plasmid used in this study was provided by the laboratory of Peter W. Lewis at the University of Wisconsin-Madison. All remaining histone methyltransferase expression plasmids were generated for this study and will be made freely available from Addgene.
(§2) Michaelis-Menten saturation curves were generated under steady-state conditions with the non-titrated component concentration being present at ≥5× KM specific to each enzyme. 1 × 10^5 CPM values were provided by [methyl-^3H] SAM in each reaction. Reaction times and enzyme concentrations were optimized for each HMT to ensure substrate turnover remained below 20%. […] Enzyme concentrations are calculated for the monomeric form. Reactions were incubated at 30 °C for 20 min before quenching with TFA for a final concentration of 2% v/v TFA. […] The eluates were added to 2 ml of Ultima Gold LSC Cocktail (Sigma-Aldrich) and counted on a scintillation counter (PerkinElmer). […]

EHMT2 catalytic domain = target: T2, EHMT2 catalytic domain (Homo sapiens, UniProt Q96KQ7); test: Radiometric EZ-tip methyltransferase assay, steady-state kinetics, EHMT2; type: biochemical, H. sapiens; conditions: SAM varied 0.1–100 μM, EHMT2 25 nM, pH 7.9, 30 °C, n = 3, SD
T2 construct: EHMT2 = 913 to 1193; made in house; host or cells: Rosetta E. coli (plasmid from the laboratory of Peter W. Lewis)
T2 sequence (Q96KQ7 913-1193): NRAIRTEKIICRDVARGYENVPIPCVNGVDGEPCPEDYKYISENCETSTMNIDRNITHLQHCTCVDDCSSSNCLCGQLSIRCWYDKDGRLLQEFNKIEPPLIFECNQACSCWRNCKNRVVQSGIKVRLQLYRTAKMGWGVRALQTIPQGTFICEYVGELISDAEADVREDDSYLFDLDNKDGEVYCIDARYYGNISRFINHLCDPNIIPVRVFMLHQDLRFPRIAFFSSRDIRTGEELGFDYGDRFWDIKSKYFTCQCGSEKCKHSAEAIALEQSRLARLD
Description: as §1, §2

SUV39H1 = target: T3, SUV39H1 (Homo sapiens, UniProt O43463); test: Radiometric EZ-tip methyltransferase assay, steady-state kinetics, SUV39H1; type: biochemical; conditions: SAM varied 0.1–100 μM, SUV39H1 100 nM, pH 7.9, 30 °C, n = 3, SD
T3 construct: made in house; host or cells: Rosetta E. coli (plasmid generated for this study)
T3 sequence (O43463 1-412): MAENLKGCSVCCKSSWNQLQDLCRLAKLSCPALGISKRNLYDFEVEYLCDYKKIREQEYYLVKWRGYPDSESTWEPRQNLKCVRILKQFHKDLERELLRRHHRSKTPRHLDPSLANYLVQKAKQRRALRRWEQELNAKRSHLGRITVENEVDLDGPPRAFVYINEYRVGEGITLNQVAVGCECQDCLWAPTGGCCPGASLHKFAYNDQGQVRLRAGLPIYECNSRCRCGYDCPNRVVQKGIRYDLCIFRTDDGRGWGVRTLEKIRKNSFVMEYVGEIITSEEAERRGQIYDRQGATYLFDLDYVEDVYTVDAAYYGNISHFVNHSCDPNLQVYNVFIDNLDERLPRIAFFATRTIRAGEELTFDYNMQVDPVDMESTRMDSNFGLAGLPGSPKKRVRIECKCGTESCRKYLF
Description: as §1, §2

SUV39H2 catalytic domain = target: T4, SUV39H2 catalytic domain (Homo sapiens, UniProt Q9H5I1); test: Radiometric EZ-tip methyltransferase assay, steady-state kinetics, SUV39H2; type: biochemical, H. sapiens; conditions: SAM varied 0.1–100 μM, SUV39H2 25 nM, pH 7.9, 30 °C, n = 3, SD
T4 construct: host or cells: Rosetta E. coli
T4 sequence (Q9H5I1 162-410): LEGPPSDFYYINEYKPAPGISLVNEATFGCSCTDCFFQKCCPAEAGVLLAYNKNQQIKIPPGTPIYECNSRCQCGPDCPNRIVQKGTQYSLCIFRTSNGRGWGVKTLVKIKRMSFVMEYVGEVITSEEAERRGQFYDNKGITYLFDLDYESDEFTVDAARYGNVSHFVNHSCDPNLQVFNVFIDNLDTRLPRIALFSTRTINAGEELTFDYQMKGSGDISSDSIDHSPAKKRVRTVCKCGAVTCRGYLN
Description: as §1, §2

[1] = fixed H3K9me1 peptide H3(1–17) 50 μM
[2] = fixed H3K9un peptide H3(1–17) 50 μM

kcat/KM, SAM (EHMT1 catalytic domain; [1]): 5000 M⁻¹ s⁻¹
kcat/KM, SAM (EHMT1 catalytic domain; [2]): 16800 M⁻¹ s⁻¹
kcat/KM, SAM (EHMT2 catalytic domain; [1]): 2170 M⁻¹ s⁻¹
kcat/KM, SAM (EHMT2 catalytic domain; [2]): 6670 M⁻¹ s⁻¹
kcat/KM, SAM (SUV39H1; [1]): 500 M⁻¹ s⁻¹
kcat/KM, SAM (SUV39H1; [2]): 1670 M⁻¹ s⁻¹
kcat/KM, SAM (SUV39H2 catalytic domain; [1]): 6000 M⁻¹ s⁻¹
kcat/KM, SAM (SUV39H2 catalytic domain; [2]): 14300 M⁻¹ s⁻¹
SMILES: C[S+](CC[C@H](N)C(=O)[O-])C[C@H]1O[C@@H](n2cnc3c(N)ncnc32)[C@H](O)[C@@H]1O (some centres unmarked) [SAM, S-adenosylmethionine]
